Measured values reported in patent EP4647433A1, “SHP2 INHIBITOR AND USES THEREOF” (Kanaph Therapeutics Inc., priority 2023, dated 2024).
Like-named read-outs stand apart in the source and are kept apart here.

How the values were obtained:
SHP2 = target: T1, SHP2 (Homo sapiens, UniProt Q06124); experiment: Phosphatase assay (PTPase assay, DiFMUP substrate); format: biochemical
T1 construct: SHP2 (full length, diluted to 100 pM final concentration in reaction buffer, BPS bioscience, US); purchased BPS bioscience, US
T1 sequence (Q06124 1-593): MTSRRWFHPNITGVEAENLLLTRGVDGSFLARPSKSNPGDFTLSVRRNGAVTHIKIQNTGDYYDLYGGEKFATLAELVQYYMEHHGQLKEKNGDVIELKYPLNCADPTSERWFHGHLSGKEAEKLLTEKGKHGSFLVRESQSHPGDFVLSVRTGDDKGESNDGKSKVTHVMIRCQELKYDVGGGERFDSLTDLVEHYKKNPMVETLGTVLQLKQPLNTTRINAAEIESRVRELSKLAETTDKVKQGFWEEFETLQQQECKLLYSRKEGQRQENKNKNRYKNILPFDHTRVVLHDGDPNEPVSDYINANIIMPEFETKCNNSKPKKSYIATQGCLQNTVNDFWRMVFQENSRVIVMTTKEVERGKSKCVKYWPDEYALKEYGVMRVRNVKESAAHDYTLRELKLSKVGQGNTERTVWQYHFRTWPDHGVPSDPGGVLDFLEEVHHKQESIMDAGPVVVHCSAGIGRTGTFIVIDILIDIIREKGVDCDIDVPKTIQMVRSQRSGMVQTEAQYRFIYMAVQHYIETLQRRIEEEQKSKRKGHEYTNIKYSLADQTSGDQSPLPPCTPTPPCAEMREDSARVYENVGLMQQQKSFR
Description: IC50 values were measured using 6,8-difluoro-4-methylumbelliferyl phosphate (DiFMUP) as a substrate. The reaction was performed in a 384-well plate, and fluorescence measurement values were obtained using an EnVision plate reader from PerkinElmer.
SHP2 (full length, diluted to 100 pM final concentration in reaction buffer, BPS bioscience, US) was incubated with the SHP2 activating peptide in reaction buffer (60 mM HEPES (pH 7.2), 75 mM NaCl, 75 mM KCl, 1 mM EDTA, 5 mM DTT, 0.05% P-20) for 30 minutes to activate SHP2. After activation, DMSO [1% (V/V) or the compound according to the Examples (concentration ranging from 0.6 nM to 10 µM)] was added. As a positive control group, the selective SHP2 inhibitors SHP099 (6-(4-amino-4-methylpiperidin-1-yl)-3-(2,3-dichlorophenyl)pyrazin-2-amine, FOCUS bioscience, Austrailia; concentration ranging from 0.6 nM to 10 µM) and TNO155 ((3S,4S)-8-(6-amino-5-((2-amino-3-chloropyridin-4-yl)thio)pyrazin-2-yl)-3-methyl-2-oxa-8-azaspiro[4.5]decan-4-amine, Chemietek, US; concentration ranging from 0.6 nM to 10 µM) were used. [drawing 184]
DiFMUP (80 µM) was added to the reaction and incubated for a total of 2 hours to allow for the reaction to proceed. Thereafter, fluorescence (340 nm excitation, 450 nm emission) values were measured. IC50 values were obtained using Graphad's Prism from the measured values depending on the concentration.
In the phosphatase assay (PTPase assay), when an IC50 value was 100 nM or more, + was indicated, when an IC50 value was 3 nM or more and less than 100 nM, ++ was indicated, and when an IC50 value was less than 3 nM, +++ was indicated.

H358 cells = experiment: Cell viability (3D spheroid, 3D CellTiter-Glo); format: cell-based; details: Homo sapiens, NCI-H358, 120 h; H358 spheroids, 5 days treatment
Description: Human non-small cell lung cancer cell line H358 cells were purchased from the Korean Cell Line Bank. Cancer cell lines were cultured in the recommended RPMI-1640 medium supplemented with 10% fetal bovine serum (FBS) and 1% penicillin/streptomycin. Monolayer-cultured cancer cell lines were detached by treatment with Trypsin/EDTA, and 100 µL of cell suspension containing 4 x 10^3 cells was each dispensed into SPL3D™ Cell Floater, 96-well round plate, through cell line counting. After culturing for 72 hours to form spheroid, the cells were individually treated with the compounds according to the Examples, which had been serially diluted (minimum 1.5 nM, maximum 10 µM in concentration), and then cultured in a cell incubator for 5 days. To analyze cell viability, the cells were treated with 50 uL of 3D CellTiter-Glo, stirred for 5 minutes at 500 rpm in a plate shaker from Thermo Fisher Scientific, and incubated for 25 minutes at room temperature. Then, the luminescent values were measured using a Varioskan equipment from Thermo Fisher Scientific. IC50 values were obtained using GraphPad's Prism from the measured values depending on the concentration.
In the cell viability assay, when an IC50 value was 50 nM or more, + was indicated, when an IC50 value was 10 nM or more and less than 50 nM, ++ was indicated, and when an IC50 value was less than 10 nM, +++ was indicated.

[1] = full length SHP2 100 pM activated with SHP2 activating peptide, DiFMUP 80 µM, 2 hours, read-out: PTPase assay (IC50)

SMILES	IC50 (SHP2; [1])	IC50 (H358 cells)	IC50 (SHP2)
CC(C)(C)Cn1cnc2ccc(Sc3cnc(N4CCC5(CC4)Cc4ncsc4[C@H]5N)cn3)c(Cl)c2c1=O [Example 5, (S)-6-((5-(6-amino-4,6-dihydrospiro[cyclopenta[d]thiazole-5,4'-piperidin]-1'-yl)pyrazin-2-yl)thio)-5-chloro-3-neopentylquinazolin-4(3H)-one]	< 3 nM		
Cn1ccc2ccc(Sc3cnc(N4CCC5(CC4)Cc4ncsc4[C@H]5N)cn3)c(Cl)c2c1=O [Example 16, (S)-7-((5-(6-amino-4,6-dihydrospiro[cyclopenta[d]thiazole-5,4'-pineridin]-1'-yl)pyrazin-2-yl)thio)-8-chloro-2-methylisoquinolin-1(2H)-one]		< 10 nM	
Cn1cnc2ccc(Sc3cnc(N4CCC5(CC4)Cc4ncsc4[C@H]5N)cn3)cc2c1=O [Example 17, (S)-6-((5-(6-amino-4,6-dihydrospiro[cyclopenta[d]thiazole-5,4'-piperidin]-1'-yl)pyrazin-2-yl)thio)-3-methylquinazolin-4(3H)-one]	< 3 nM	< 10 nM	
C[C@@H]1OCC2(CCN(c3cnc(Sc4ccc5ncn(CC(C)(F)F)c(=O)c5c4Cl)cn3)CC2)[C@@H]1N [Example 21, 6-((5-((3S,4S)-4-amino-3-methyl-2-oxa-8-azaspiro[4.5]decan-8-yl)pyrazin-2-yl)thio)-5-chloro-3-(2,2-difluoropropyl)quinazolin-4(3H)-one]	< 3 nM		
COCCn1cnc2ccc(Sc3cnc(N4CCC5(CC4)Oc4ccccc4[C@H]5N)cn3)c(Cl)c2c1=O [Example 22, (R)-6-((5-(3-amino-3H-spiro[benzofuran-2,4'-piperidin]-1'-yl)pyrazin-2-yl)thio)-5-chloro-3-(2-methoxyethyl)quinazolin-4(3H)-one]	3 to 100 nM		
C[C@@H]1OCC2(CCN(c3cnc(Sc4ccc5ncn(CCC#N)c(=O)c5c4Cl)cn3)CC2)[C@@H]1N [Example 24, 3-(6-((5-((3S,4S)-4-amino-3-methyl-2-oxa-8-azaspiro[4.5]decan-8: yl)pyrazin-2-yl)thio)-5-chloro-4-oxoquinazolin-3(4H)-yl)propanenitrile]		10 to 50 nM	< 3 nM
C[C@@H]1OCC2(CCN(c3cnc(Sc4ccc5ncn(CC6CCN(C)CC6)c(=O)c5c4Cl)cn3)CC2)[C@@H]1N [Example 26, 6-((5-((3S,4S)-4-amino-3-methyl-2-oxa-8-azaspiro[4.5]decan-8-yl)pyrazin-2-yl)thio)-5-chloro-3-((1-methylpiperidin-4-yl)methyl)quinazolin-4(3H)-one]	3 to 100 nM	< 10 nM	
COC(C)(C)Cn1cnc2ccc(Sc3cnc(N4CCC5(CC4)Cc4scnc4[C@H]5N)cn3)c(Cl)c2c1=O [Example 33, (S)-6-((5-(4-amino-4,6-dihydrospiro[cyclopenta[d]thiazole-5,4'-piperidin]-1'-yl)pyrazin-2-yl)thio)-5-chloro-3-(2-methoxy-2-methylpropyl)quinazolin-4(3H)-one]		10 to 50 nM	
N[C@@H]1c2scnc2CC12CCN(c1cnc(Sc3ccc4ncn(-c5ccccc5)c(=O)c4c3Cl)cn1)CC2 [Example 38, (S)-6-((5-(6-amino-4,6-dihydrospiro[cyclopenta[d]thiazole-5,4'-piperidin]-1'-yl)pyrazin-2-yl)thio)-5-chloro-3-phenylquinazolin-4(3H)-one]		< 10 nM	

Second part, led by results:

IC50 (SHP2; [1])	IC50 (H358 cells)	SMILES	IC50 (SHP2)
< 3 nM	< 10 nM	Cn1cnc2ccc(Sc3cnc(N4CCC5(CC4)Cc4ncccc4[C@H]5N)cn3)c(Cl)c2c1=O [Example 6, (S)-6-((5-(5-amino-5,7-dihydrospiro[cyclopenta[b]pyridine-6,4'-piperidin]-1'-yl)pyrazin-2-yl)thio)-5-chloro-3-methylquinazolin-4(3H)-one]	
< 3 nM	< 10 nM	CC(C)(O)Cn1cnc2ccc(Sc3ncc(N4CCC5(CC4)Cc4ccccc4[C@H]5N)nc3N)c(Cl)c2c1=O [Example 11, (S)-6-((3-amino-5-(1-amino-1,3-dihydrospiro[indene-2,4'-piperidin]-1'-yl)pyrazin-2-yl)thio)-5-chloro-3-(2-hydroxy-2-methylpropyl)quinazolin-4(3H)-one]	
3 to 100 nM		C[C@@H]1OCC2(CCN(c3cnc(Sc4ccc5ncn(Cc6ccccc6)c(=O)c5c4Cl)c(N)n3)CC2)[C@@H]1N [Example 12, 6-((3-amino-5-((3S,4S)-4-amino-3-methyl-2-oxa-8-azaspiro[4.5]decan-8-yl)pyrazin-2-yl)thio)-3-benzyl-5-chloroquinazolin-4(3H)-one]	
3 to 100 nM		CC1(CN)CCN(c2cnc(Sc3ccc4ncn(Cc5ccccc5)c(=O)c4c3Cl)c(N)n2)CC1 [Example 13, 6-((3-amino-5-(4-(aminomethyl)-4-methylpiperidine-1-yl)pyrazin-2-yl)thio)-3-benzyl-5-chloroquinazolin-4(3H)-one]	
< 3 nM	< 10 nM	COC(C)Cn1ccc2ccc(Sc3cnc(N4CCC5(CC4)CO[C@@H](C)[C@H]5N)cn3)c(Cl)c2c1=O (stereo partly drawn) [Example 14, 7-((5-((3S,4S)-4-amino-3-methyl-2-oxa-8-azaspiro[4.5]decan-8-yl)pyrazin-2-yl)thio)-8-chloro-2-(2-methoxypropyl)isoquinolin-1(2H)-one]	
< 3 nM		COC(F)(F)Cn1cnc2ccc(Sc3cnc(N4CCC5(CC4)CO[C@@H](C)[C@H]5N)cn3)c(Cl)c2c1=O [Example 19, 6-((5-((3S,4S)-4-amino-3-methyl-2-oxa-8-azaspiro[4.5]decan-8-yl)pyrazin-2-yl)thio)-5-chloro-3-(2,2-difluoro-2-methoxyethyl)quinazolin-4(3H)-one]	
3 to 100 nM		COC1(Cn2cnc3ccc(Sc4cnc(N5CCC6(CC5)CO[C@@H](C)[C@H]6N)cn4)c(Cl)c3c2=O)CC1 [Example 20, 6-((5-((3S,4S)-4-amino-3-methyl-2-oxa-8-azaspiro[4.5]decan-8-yl)pyrazin-2-yl)thio)-5-chloro-3-((1-methoxycyclopropyl)methyl)quinazolin-4(3H)-one]	
< 3 nM	10 to 50 nM	C[C@@H]1OCC2(CCN(c3cnc(Sc4ccc5ncn(CC6(C)CCOCC6)c(=O)c5c4Cl)cn3)CC2)[C@@H]1N [Example 23, 6-((5-((3S,4S)-4-amino-3-methyl-2-oxa-8-azaspiro[4.5]decan-8-yl)pyrazin-2-yl)thio)-5-chloro-3-((4-methyltetrahydro-2H-pyran-4-yl)methyl)quinazolin-4(3H)-one]	
	< 10 nM	N[C@@H]1c2ccccc2CC12CCN(c1cnc(Sc3ccc4ncn(-c5ccccc5)c(=O)c4c3Cl)cn1)CC2 [Example 30, (S)-6-((5-(1-amino-1,3-dihydrospiro[indene-2,4'-piperidin]-1'-yl)pyrazin-2-yl)thio)-5-chloro-3-phenylquinazolin-4(3H)-one]	
3 to 100 nM	< 10 nM	CC(C)n1ccc2ccc(Sc3cnc(N4CCC5(CC4)Cc4ncsc4[C@H]5N)cn3)c(Cl)c2c1=O [Example 40, (S)-7-((5-(6-amino-4,6-dihydrospiro[cyclopenta[d]thiazole-5,4'-piperidin]-1'-yl)pyrazin-2-yl)thio)-8-chloro-2-isopropylisoquinolin-1(2H)-one]	
